This passage reports IC50 results from patent US10913742B2, “Oxadiazolones as transient receptor potential channel inhibitors” (Genentech, Inc., priority 2017, dated 2021).

SMILES strings stand for the structures.

Broadly, the IC50 is the concentration needed to halve the response being measured.

Chain of human TRPA1 (O75762 whole entry): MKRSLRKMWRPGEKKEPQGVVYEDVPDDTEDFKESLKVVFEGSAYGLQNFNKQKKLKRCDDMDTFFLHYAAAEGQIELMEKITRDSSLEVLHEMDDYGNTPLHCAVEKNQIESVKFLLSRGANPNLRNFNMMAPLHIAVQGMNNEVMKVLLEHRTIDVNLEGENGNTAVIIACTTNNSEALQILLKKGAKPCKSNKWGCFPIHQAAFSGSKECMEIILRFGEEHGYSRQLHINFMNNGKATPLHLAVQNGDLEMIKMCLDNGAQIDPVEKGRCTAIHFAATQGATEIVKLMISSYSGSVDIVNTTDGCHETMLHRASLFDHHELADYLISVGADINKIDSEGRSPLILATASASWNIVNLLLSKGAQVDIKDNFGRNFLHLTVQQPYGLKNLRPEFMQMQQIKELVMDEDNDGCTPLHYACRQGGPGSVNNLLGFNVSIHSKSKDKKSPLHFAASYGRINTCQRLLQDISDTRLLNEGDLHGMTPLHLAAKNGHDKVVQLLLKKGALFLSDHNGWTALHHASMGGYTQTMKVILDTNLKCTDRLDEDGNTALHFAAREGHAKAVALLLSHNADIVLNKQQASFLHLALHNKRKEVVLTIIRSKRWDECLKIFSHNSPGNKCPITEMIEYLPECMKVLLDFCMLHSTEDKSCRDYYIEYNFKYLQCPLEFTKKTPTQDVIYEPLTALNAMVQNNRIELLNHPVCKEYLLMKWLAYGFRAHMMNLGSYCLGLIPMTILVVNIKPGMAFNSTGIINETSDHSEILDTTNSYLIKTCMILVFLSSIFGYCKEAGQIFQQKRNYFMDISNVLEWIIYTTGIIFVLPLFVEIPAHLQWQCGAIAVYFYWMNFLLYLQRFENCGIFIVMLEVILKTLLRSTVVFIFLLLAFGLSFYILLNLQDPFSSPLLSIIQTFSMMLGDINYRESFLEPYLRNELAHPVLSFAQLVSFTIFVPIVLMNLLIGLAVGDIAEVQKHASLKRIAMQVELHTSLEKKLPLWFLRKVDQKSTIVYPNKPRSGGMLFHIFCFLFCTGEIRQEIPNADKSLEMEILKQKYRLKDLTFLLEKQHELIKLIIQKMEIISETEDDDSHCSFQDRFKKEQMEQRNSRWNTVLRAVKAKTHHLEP

The experiment has as its target human TRPA1 (Homo sapiens (Human), UniProt O75762). The experiment can be described thus: hTRPA1 CHO Ca2+ FLIPR assay (block of cinnamaldehyde induced calcium influx). Format: cell-based. Conditions: CHO cells expressing TRPA1; 75 uM cinnamaldehyde; Hill coefficient fixed to 1.5; read-out: hTRPA1 (hTRPA1 CHO Ca2+ MAX EVO (IC50)). The method, then:
CHO cells expressing TRPA1 were plated into 384-well plates, incubated overnight at 37° C., and loaded with BD calcium indicator dye for 1 hr at 37° C. followed by 15 minutes at room temperature. The assay buffer was Hank's Balanced Salt Solution (HBSS) containing 20 mM HEPES (pH readjusted to 7.4) along with 0.02% BSA.
Following dye load and plate cool down, compounds were added to the cells using FLIPR Tetra. Plates were then incubated with compounds for 20 minutes at room temperature prior to adding agonist.
The IC50 results were fit with a standard Hill function, keeping the Hill coefficient (n) fixed to 1.5. Fixing the Hill coefficient will generally reduce variability of the IC50 determination. The IC50 results were individually examined to make sure the MIN and MAX points were set correctly prior to validation of the results.
For the compound `Cc1ccnc2ncn(Cc3nn([C@H]4C[C@](F)(c5ccc(F)cc5)C4)c(=O)o3)c(=O)c12` [compound 96, 3-[3-fluoro-3-(4-fluorophenyl)cyclobutyl]-5-[(5-methyl-4-oxo-pyrido[2,3-d]pyrimidin-3-yl)methyl]-1,3,4-oxadiazol-2-one], the IC50 worked out at 0.018 µM. As for `Cn1cnc2ncn(Cc3nn([C@H]4C[C@H](c5ccc(Cl)c(F)c5)C4)c(=O)o3)c(=O)c21` [compound 106, 3-[3-(4-chloro-3-fluoro-phenyl)cyclobutyl]-5-[(7-methyl-6-oxo-purin-1-yl)methyl]-1,3,4-oxadiazol-2-one], the IC50 stood at 0.0299 µM. With `C[C@@H](Cn1nc(Cn2cnc3ncn(C)c3c2=O)oc1=O)c1ccc(Cl)cc1` [compound 20, (R)-3-(2-(4-chlorophenyl)propyl)-5-((7-methyl-6-oxo-6H-purin-1(7H)-yl)methyl)-1,3,4-oxadiazol-2(3H)-one], the IC50 is 0.812 µM. `Cn1cnc2cnn(Cc3nn(CCc4ccc(Cl)cc4)c(=O)o3)c(=O)c21` [compound 35, 3-[2-(4-chlorophenyl)ethyl]-5-[(3-methyl-4-oxo-imidazo[4,5-d]pyridazin-5-yl)methyl]-1,3,4-oxadiazol-2-one]: the IC50 was found to be 0.096 µM. Take `Cn1nnc2ncn(Cc3nn([C@H]4C[C@H](c5ccc(Cl)cc5)C4)c(=O)o3)c(=O)c21` [compound 64, trans-3-[3-(4-chlorophenyl)cyclobutyl]-5-[(1-methyl-7-oxo-triazolo[4,5-d]pyrimidin-6-yl)methyl]-1,3,4-oxadiazol-2-one]: the IC50 came out at 0.0769 µM. With `Cc1ccnc2ncn(Cc3nn([C@@H]4CC[C@@H](c5ccc(F)cc5)C4)c(=O)o3)c(=O)c12` (racemic) [compound 67, 5-[(5-methyl-4-oxo-pyrido[2,3-d]pyrimidin-3-yl)methyl]-3-[rac-(1R,3R)-3-(4-fluorophenyl)cyclopentyl]-1,3,4-oxadiazol-2-one], the IC50 was 0.00476 µM. Turning to `Cn1cnc2ncn(Cc3nn(C[C@@H](F)c4ccc(Cl)cc4)c(=O)o3)c(=O)c21` [compound 15, (S)-3-(2-(4-chlorophenyl)-2-fluoroethyl)-5-((7-methyl-6-oxo-6H-purin-1(7H)-yl)methyl)-1,3,4-oxadiazol-2(3H)-one], the IC50 came to 3.83 µM.

Consider `O=c1c2cccnc2cnn1Cc1nn([C@H]2C[C@H](c3ccc(Cl)cc3)C2)c(=O)o1` [compound 90, 3-[3-(4-chlorophenyl)cyclobutyl]-5-[(5-oxopyrido[2,3-d]pyridazin-6-yl)methyl]-1,3,4-oxadiazol-2-one], for which the IC50 came to 0.0799 µM. The value for `Cn1cnc2ncn(Cc3nn(CCc4cccc(-c5ccccc5)c4)c(=O)o3)c(=O)c21` [compound 24, 7-methyl-1-([5-oxo-4-[2-(3-phenylphenyl)ethyl]-4,5-dihydro-1,3,4-oxadiazol-2-yl]methyl)-6,7-dihydro-1H-purin-6-one] was 0.338 µM; that for `Cc1ccnc2ncn(Cc3nn(CCCOc4cccc(Cl)c4)c(=O)o3)c(=O)c12` [compound 85, 3-(3-(3-chlorophenoxy)propyl)-5-((5-methyl-4-oxopyrido[2,3-d]pyrimidin-3(4H)-yl)methyl)-1,3,4-oxadiazol-2(3H)-one] was 0.00634 µM; that for `Cn1c(=O)ccc2ncn(Cc3nn([C@H]4C[C@H](c5ccc(Cl)cc5)C4)c(=O)o3)c(=O)c21` [compound 83, 3-((4-((trans)-3-(4-chlorophenyl)cyclobutyl)-5-oxo-4,5-dihydro-1,3,4-oxadiazol-2-yl)methyl)-5-methylpyrido[3,2-d]pyrimidine-4,6(3H,5H)-dione] was 0.0152 µM. For `Cn1cnc2ncn(Cc3nn(CCCOc4cccc(Cl)c4)c(=O)o3)c(=O)c21` [compound 86, 1-([4-[3-(3-chlorophenoxy)propyl]-5-oxo-4,5-dihydro-1,3,4-oxadiazol-2-yl]methyl)-7-methyl-6,7-dihydro-1H-purin-6-one], the IC50 is 0.0226 µM. For the compound `O=c1c2cccnc2ncn1Cc1nn(C[C@H](F)c2ccc(Cl)cc2)c(=O)o1` (racemic) [compound 95, 5-[(4-oxopyrido[2,3-d]pyrimidin-3-yl)methyl]-3-[rac-(2R)-2-(4-chlorophenyl)-2-fluoro-ethyl]-1,3,4-oxadiazol-2-one], the IC50 was 0.0485 µM. Take `Cc1noc2ncn(Cc3nn([C@H]4C[C@H](c5ccc(Cl)cc5)C4)c(=O)o3)c(=O)c12` [compound 91, 5-[[4-[3-(4-chlorophenyl)cyclobutyl]-5-oxo-1,3,4-oxadiazol-2-yl]methyl]-3-methyl-isoxazolo[5,4-d]pyrimidin-4-one]: the IC50 came to 0.0362 µM. For the compound `Cc1cnc(Cl)c2ncn(Cc3nn(CCc4ccc(Cl)cc4)c(=O)o3)c(=O)c12` [compound 40, 5-((8-chloro-5-methyl-4-oxopyrido[3,4-d]pyrimidin-3(4H)-yl)methyl)-3-(4-chlorophenethyl)-1,3,4-oxadiazol-2(3H)-one], the IC50 came out at 0.018 µM. The result for `Cn1cnc2ncn(Cc3nn(C[C@H](F)c4ccc(OC(F)F)cc4)c(=O)o3)c(=O)c21` (racemic) [compound 110, 5-[(7-methyl-6-oxo-purin-1-yl)methyl]-3-[rac-(2R)-2-[4-(difluoromethoxy)phenyl]-2-fluoro-ethyl]-1,3,4-oxadiazol-2-one] reads 0.0813 µM. In the case of `Cc1ccnc2ncn(Cc3nn([C@H]4C[C@H](c5ccc6ncccc6c5)C4)c(=O)o3)c(=O)c12` [compound 66, 5-[(5-methyl-4-oxo-pyrido[2,3-d]pyrimidin-3-yl)methyl]-3-[3-(6-quinolyl)cyclobutyl]-1,3,4-oxadiazol-2-one], the IC50 was determined as 0.0125 µM.

For the compound `Cn1cnc2ncn(Cc3nn(CCc4ccc(Cl)c(-c5ccccc5)c4)c(=O)o3)c(=O)c21` [compound 42, 3-(2-(6-chlorobiphenyl-3-yl)ethyl)-5-((7-methyl-6-oxo-6H-purin-1(7H)-yl)methyl)-1,3,4-oxadiazol-2(3H)-one], the half-inhibitory concentration (IC50) was 0.098 µM. On to `Cn1cnc2ncn(Cc3nn(CCc4ccccc4)c(=O)o3)c(=O)c21` [compound 4, 5-((7-methyl-6-oxo-6H-purin-1(7H)-yl)methyl)-3-phenethyl-1,3,4-oxadiazol-2(3H)-one], for which the half-inhibitory concentration (IC50) stood at 1.05 µM. For the compound `C[C@H](Cn1nc(Cn2cnc3ncn(C)c3c2=O)oc1=O)c1ccc(Cl)cc1` [compound 19, (S)-3-(2-(4-chlorophenyl)propyl)-5-((7-methyl-6-oxo-6H-purin-1(7H)-yl)methyl)-1,3,4-oxadiazol-2(3H)-one], the IC50 came out at 0.034 µM. Regarding `Cn1cnc2ncn(Cc3nn([C@H]4C[C@](F)(c5ccc(F)cc5)C4)c(=O)o3)c(=O)c21` [compound 97, 3-[3-fluoro-3-(4-fluorophenyl)cyclobutyl]-5-[(7-methyl-6-oxo-purin-1-yl)methyl]-1,3,4-oxadiazol-2-one], the IC50 came to 0.0802 µM. With `Cn1cnc2ncn(Cc3nn([C@H]4C[C@H](c5ccc(C(F)(F)F)cc5)C4)c(=O)o3)c(=O)c21` [compound 111, 5-[(7-methyl-6-oxo-purin-1-yl)methyl]-3-[3-[4-(trifluoromethyl)phenyl]cyclobutyl]-1,3,4-oxadiazol-2-one], the IC50 worked out at 0.09 µM. Consider `Cn1cnc2ncn(Cc3nn(CCc4ccc(Br)c(Cl)c4)c(=O)o3)c(=O)c21` [compound 25, 1-([4-[2-(4-bromo-3-chlorophenyl)ethyl]-5-oxo-4,5-dihydro-1,3,4-oxadiazol-2-yl]methyl)-7-methyl-6,7-dihydro-1H-purin-6-one], for which the IC50 stood at 0.132 µM. The result for `Cn1cnc2ncn(Cc3nn([C@@H]4CC[C@@H](c5cccc(Cl)c5)C4)c(=O)o3)c(=O)c21` (racemic) [compound 101, 5-[(7-methyl-6-oxo-purin-1-yl)methyl]-3-[rac-(1R,3R)-3-(3-chlorophenyl)cyclopentyl]-1,3,4-oxadiazol-2-one] reads 0.0361 µM; that for `Cc1ncnc2ncn(Cc3nn(CCc4ccc(Cl)cc4)c(=O)o3)c(=O)c12` [compound 46, 3-(4-chlorophenethyl)-5-((5-methyl-4-oxopyrimido[4,5-d]pyrimidin-3(4H)-yl)methyl)-1,3,4-oxadiazol-2(3H)-one], 0.107 µM. As to `Cn1cnc2ncn(Cc3nn([C@H]4C[C@H](c5ccc6ccccc6c5)C4)c(=O)o3)c(=O)c21` [compound 113, 5-[(7-methyl-6-oxo-purin-1-yl)methyl]-3-[3-(2-naphthyl)cyclobutyl]-1,3,4-oxadiazol-2-one], the IC50 was 0.0178 µM. `Cn1cnc2ncn(Cc3nn(C[C@@H]4CCc5cc(Cl)ccc54)c(=O)o3)c(=O)c21` [compound 49, (R)-3-((5-chloro-2,3-dihydro-1H-inden-1-yl)methyl)-5-((7-methyl-6-oxo-6,7-dihydro-1H-purin-1-yl)methyl)-1,3,4-oxadiazol-2(3H)-one]: the IC50 was 0.061 µM. Turning to `Cn1cnc2ncn(Cc3nn([C@H]4C[C@H](c5ccccc5)C4)c(=O)o3)c(=O)c21` [compound 51, 5-[(7-methyl-6-oxo-purin-1-yl)methyl]-3-(3-phenylcyclobutyl)-1,3,4-oxadiazol-2-one], the IC50 is 0.168 µM.

Regarding `O=c1c2cccnc2ncn1Cc1nn([C@H]2C[C@H](c3ccc(Cl)cc3)C2)c(=O)o1` [compound 98, trans-3-[3-(4-chlorophenyl)cyclobutyl]-5-[(4-oxopyrido[2,3-d]pyrimidin-3-yl)methyl]-1,3,4-oxadiazol-2-one], the IC50 worked out at 0.0162 µM. As for `Cn1cnc2cnn(Cc3nn([C@H]4C[C@H](c5ccc(Cl)cc5)C4)c(=O)o3)c(=O)c21` [compound 89, 3-[3-(4-chlorophenyl)cyclobutyl]-5-[(3-methyl-4-oxo-imidazo[4,5-d]pyridazin-5-yl)methyl]-1,3,4-oxadiazol-2-one], the IC50 is 0.0457 µM.
